One experiment has as its system HEK293. The experiment can be described thus: cells. The note with it: Homo sapiens.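 Note: cells exposed to compound for 14 hours overnight before viability readout.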
In experiment [1] the target is T1, Nucleotide-binding oligomerization domain-containing protein 1 (Homo sapiens, UniProt Q9Y239).
T1 sequence (Q9Y239 whole entry): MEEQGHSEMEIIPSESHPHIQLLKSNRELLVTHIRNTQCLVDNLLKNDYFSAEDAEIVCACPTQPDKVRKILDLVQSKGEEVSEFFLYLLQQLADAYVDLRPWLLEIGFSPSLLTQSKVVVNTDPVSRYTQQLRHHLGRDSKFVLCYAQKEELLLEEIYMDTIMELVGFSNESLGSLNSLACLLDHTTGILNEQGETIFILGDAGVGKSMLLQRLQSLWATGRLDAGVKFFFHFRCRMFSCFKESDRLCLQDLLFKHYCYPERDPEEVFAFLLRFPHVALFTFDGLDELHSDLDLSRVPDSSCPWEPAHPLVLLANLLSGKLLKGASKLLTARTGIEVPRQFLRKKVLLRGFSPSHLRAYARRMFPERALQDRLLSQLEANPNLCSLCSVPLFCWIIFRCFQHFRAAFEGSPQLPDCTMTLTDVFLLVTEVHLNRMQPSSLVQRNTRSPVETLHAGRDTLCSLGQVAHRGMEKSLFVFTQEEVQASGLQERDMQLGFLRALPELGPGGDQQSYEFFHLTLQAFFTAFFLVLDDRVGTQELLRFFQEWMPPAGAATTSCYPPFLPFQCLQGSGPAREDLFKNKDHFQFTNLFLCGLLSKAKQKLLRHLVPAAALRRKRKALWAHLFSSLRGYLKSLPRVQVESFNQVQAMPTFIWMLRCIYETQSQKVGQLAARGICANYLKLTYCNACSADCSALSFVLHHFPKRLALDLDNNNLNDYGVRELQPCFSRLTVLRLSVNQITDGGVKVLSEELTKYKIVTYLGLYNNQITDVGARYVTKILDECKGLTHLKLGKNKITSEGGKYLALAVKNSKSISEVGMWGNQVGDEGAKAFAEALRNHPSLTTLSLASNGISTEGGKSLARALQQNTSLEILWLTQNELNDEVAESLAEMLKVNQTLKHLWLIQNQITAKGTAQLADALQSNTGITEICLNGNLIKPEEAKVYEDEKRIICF
The experiment is described as follows: NOD1 signaling inhibitors, SAR follow-up, revised (AID 2333). The format is functional.

The next experiment deals with Tumor necrosis factor (Homo sapiens, UniProt P01375). The experiment is described as follows: TNFa-triggered NF-kB activation inhibitors, SAR follow-up, cell-based, revised (AID 2337). Type of experiment: functional.
The target in a further experiment is Phosphomannomutase 2 (Homo sapiens, UniProt O15305). The experiment is described as follows: Counter screen SAR assay for PMM2 inhibitors via a fluorescence intensity assay. [Related pubchem assays (depositor defined):AID1545, AID1574]. On the technique in general: Counterscreens check selectivity or assay interference.
The target in experiment [2] is T2, Mannose-6-phosphate isomerase (Homo sapiens, UniProt P34949).
T2 sequence (P34949 whole entry): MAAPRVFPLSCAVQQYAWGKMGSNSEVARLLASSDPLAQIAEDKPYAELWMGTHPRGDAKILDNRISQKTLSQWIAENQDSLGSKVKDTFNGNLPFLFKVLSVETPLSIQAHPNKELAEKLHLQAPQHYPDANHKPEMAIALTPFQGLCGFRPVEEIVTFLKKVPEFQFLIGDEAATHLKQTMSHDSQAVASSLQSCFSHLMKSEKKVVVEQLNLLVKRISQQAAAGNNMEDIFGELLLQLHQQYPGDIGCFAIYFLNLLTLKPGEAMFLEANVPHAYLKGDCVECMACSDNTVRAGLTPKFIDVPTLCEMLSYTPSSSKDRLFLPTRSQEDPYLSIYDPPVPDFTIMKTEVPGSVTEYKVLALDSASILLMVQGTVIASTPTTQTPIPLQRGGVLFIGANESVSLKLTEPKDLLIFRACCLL
The experiment can be described thus: PMI enzyme inhibitors, confirmation, biochemical, fluorescence intensity (AID 1535).

Experiment [3] deals with T3, Voltage-gated N-type calcium channel alpha-1B subunit/Amyloid beta A4 precursor protein-binding family A member 1 (Homo sapiens, UniProt Q00975+Q02410). Type of experiment: protein assay.
Experiment [4] deals with T4, Dual specificity protein phosphatase 3 (Homo sapiens, UniProt P51452). The experiment is described as follows: VHR1 phosphatase inhibitors, biochemical (AID 1878).
In experiment [5] the target is T4, Dual specificity protein phosphatase 3. The experiment is described as follows: VHR1 phosphatase inhibitors, primary screen, biochemical, absorbance, uHTS (AID 1654).
Experiment [6] addresses T5, Dual specificity protein phosphatase 6 (Rattus norvegicus, UniProt Q64346).
T5 sequence (Q64346 whole entry): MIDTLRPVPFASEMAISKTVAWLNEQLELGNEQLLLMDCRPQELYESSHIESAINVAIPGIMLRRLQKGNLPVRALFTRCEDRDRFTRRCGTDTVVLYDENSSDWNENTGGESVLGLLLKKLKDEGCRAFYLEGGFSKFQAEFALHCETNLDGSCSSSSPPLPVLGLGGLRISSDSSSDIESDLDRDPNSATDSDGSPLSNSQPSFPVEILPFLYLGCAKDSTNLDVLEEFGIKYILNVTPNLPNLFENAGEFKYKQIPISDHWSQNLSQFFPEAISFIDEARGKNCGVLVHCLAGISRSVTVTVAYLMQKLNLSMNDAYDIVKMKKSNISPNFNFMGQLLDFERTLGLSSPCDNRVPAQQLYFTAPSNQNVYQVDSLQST
The experiment can be described thus: MKP-3 phosphatase inhibitors, primary screen, biochemical, rat enzyme, in vitro (AID 425).

Experiment [7] has as its target T3, Voltage-gated N-type calcium channel alpha-1B subunit/Amyloid beta A4 precursor protein-binding family A member 1. Type of experiment: protein assay. The source holds these as a separate data set.
The target in experiment [8] is E3 ubiquitin-protein ligase XIAP (Homo sapiens, UniProt P98170). The experiment is described as follows: Counter Screen using XIAP-Bir3 for Chemical Antagonists of Bir1/2 domains of IAP-family anti-apoptotic proteins. [Related pubchem assays (depositor defined):AID1018, AID1449, AID1514, AID1638, AID1749, AID1750, AID488957, AID488963].
Experiment [9] is described as follows: growth induction of Burl-1 ts yeast mutant, dose response, counter-screen for SUMOylation pathway inhibitor project, whole organism, S. cerevisiae, luminescence (AID 463199). Type of experiment: functional.
In a further experiment the target is CAAX prenyl protease 2 (Saccharomyces cerevisiae S288c, UniProt Q03530). The format is biochemical.
The target in another experiment is CAAX prenyl protease 1 (Saccharomyces cerevisiae S288c, UniProt P47154). The experiment can be described thus: Ste24 protease inhibitors, dose response, biochemical, S. cerevisiae, plate reader, cherry-pick (AID 488815).
Experiment [10] has as its target T6, Delta-type opioid receptor (Homo sapiens, UniProt P41143). The experiment is described as follows: DOR agonists, SAR follow-up, image-based (AID 2370). The format is functional.
The target in experiment [11] is T6, Delta-type opioid receptor. The experiment can be described thus: DOR antagonists, SAR follow-up, image-based (AID 2357). Type of experiment: functional.
The target in experiment [12] is T7, Mu-type opioid receptor (Homo sapiens, UniProt P35372). The experiment can be described thus: HTS Image-Based Screen for Agonists of the MOR Receptor. [Related pubchem assays (depositor defined):AID1777, AID1785, AID1786, AID2133]. The format is functional.
Experiment [13] concerns the target T8, Kappa-type opioid receptor (Homo sapiens, UniProt P41145). The format is functional.
The target of experiment [14] is T6, Delta-type opioid receptor. The experiment can be described thus: HTS Image-Based Screen for Antagonists of the DOR Receptor. [Related pubchem assays (depositor defined):AID1777, AID1785, AID1786, AID2133]. Type of experiment: functional.
The target of experiment [15] is T7, Mu-type opioid receptor. The experiment is described as follows: MOR agonists by imaging, SAR follow-up, image-based (AID 2352). Type of experiment: functional.
Experiment [16] addresses T8, Kappa-type opioid receptor. The experiment can be described thus: KOR agonist analogs, imaging readout, SAR follow-up, image-based (AID 2359). Type of experiment: functional.
The target of experiment [17] is Voltage-dependent T-type calcium channel subunit alpha-1H (Homo sapiens, UniProt O95180). The format is functional.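 Note: channel activity triggered by adding a high calcium stimulation buffer.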
Experiment [18] has as its target T8, Kappa-type opioid receptor. The format is functional. The source holds these as a separate data set.
Experiment [19] addresses T6, Delta-type opioid receptor. The experiment can be described thus: HTS Image-Based Screen for Agonists of the DOR Receptor. [Related pubchem assays (depositor defined):AID1777, AID1786, AID2133]. Type of experiment: functional.
Experiment [20] addresses T7, Mu-type opioid receptor. The experiment is described as follows: MOR antagonists, SAR follow-up, image-based (AID 2420).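 Note: compounds added before stimulation of receptor with agonist DAMGO.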 The format is functional.
Experiment [21] deals with T8, Kappa-type opioid receptor. The experiment is described as follows: SAR analysis of small molecule agonists of the kappa opioid receptor via a luminescent beta-arrestin assay. [Related pubchem assays (depositor defined):AID1777, AID1786, AID1966, AID2133, AID2136, AID2348, AID2352, AID2357, AID2359, AID2370, AID2420, AID2478, AID2491, AID2492, AID2493, AID2497, AID2498, AID2500, AID449737, AID488822, AID488842]. The format is functional.

Experiment [22] deals with T8, Kappa-type opioid receptor. The experiment is described as follows: KOR antagonists by imaging, SAR follow-up, image-based (AID 2348). Type of experiment: functional.
The target of experiment [23] is Intestinal-type alkaline phosphatase (Mus musculus, UniProt P24822). The experiment is described as follows: PubChem AID 488785. Type of experiment: functional.
Experiment [24] deals with T9, Alkaline phosphatase, tissue-nonspecific isozyme (Homo sapiens, UniProt P05186).
T9 sequence (P05186 whole entry): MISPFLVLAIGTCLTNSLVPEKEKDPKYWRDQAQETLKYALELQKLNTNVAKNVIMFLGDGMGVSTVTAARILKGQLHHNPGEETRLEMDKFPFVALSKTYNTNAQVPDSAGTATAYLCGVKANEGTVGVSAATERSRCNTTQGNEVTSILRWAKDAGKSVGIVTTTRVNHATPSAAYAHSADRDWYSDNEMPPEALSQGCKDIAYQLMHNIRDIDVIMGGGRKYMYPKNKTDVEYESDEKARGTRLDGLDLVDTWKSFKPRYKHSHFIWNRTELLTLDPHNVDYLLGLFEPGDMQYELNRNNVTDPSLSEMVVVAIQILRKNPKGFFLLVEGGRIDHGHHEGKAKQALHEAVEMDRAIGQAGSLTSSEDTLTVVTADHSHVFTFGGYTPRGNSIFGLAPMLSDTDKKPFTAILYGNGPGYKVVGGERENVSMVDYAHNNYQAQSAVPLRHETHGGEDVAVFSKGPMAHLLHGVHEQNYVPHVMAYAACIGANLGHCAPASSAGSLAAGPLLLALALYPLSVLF
The experiment is described as follows: TNAP enzyme inhibition by screening hits, dose response, selectivity assay for mouse IAP inhibitor project, biochemical, human TNAP, uHTS hits (AID 488906). The format is functional.

In experiment [25] the target is Intestinal-type alkaline phosphatase (Homo sapiens, UniProt P09923). The experiment is described as follows: inhibition of human intestinal alkaline phosphatase – biochemical, dose response (AID 488876). The format is functional.
Experiment [26] has as its target Potassium voltage-gated channel subfamily KQT member 2 (Rattus norvegicus, UniProt O88943). The experiment can be described thus: KCNQ2 channel activators, analog series, SAR follow-up, automated patch clamp, KCNQ2-CHO cells (AID 493113). The format is functional.

Our source for the IC50, AC50 and EC50 values is ChEMBL document CHEMBL1201862, “PubChem BioAssay data set” (2004).

Calls of active or inactive are those of the source.

T6 sequence (P41143 whole entry): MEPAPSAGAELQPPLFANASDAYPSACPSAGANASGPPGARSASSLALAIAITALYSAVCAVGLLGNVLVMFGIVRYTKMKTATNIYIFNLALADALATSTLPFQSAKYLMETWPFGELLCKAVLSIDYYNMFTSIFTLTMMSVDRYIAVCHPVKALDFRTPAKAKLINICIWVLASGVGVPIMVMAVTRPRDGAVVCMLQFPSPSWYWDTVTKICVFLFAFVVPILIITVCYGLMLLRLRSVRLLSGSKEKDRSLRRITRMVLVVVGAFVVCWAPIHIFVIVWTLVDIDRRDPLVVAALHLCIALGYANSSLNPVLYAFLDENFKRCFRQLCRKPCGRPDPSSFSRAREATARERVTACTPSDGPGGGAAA
T8 sequence (P41145 whole entry): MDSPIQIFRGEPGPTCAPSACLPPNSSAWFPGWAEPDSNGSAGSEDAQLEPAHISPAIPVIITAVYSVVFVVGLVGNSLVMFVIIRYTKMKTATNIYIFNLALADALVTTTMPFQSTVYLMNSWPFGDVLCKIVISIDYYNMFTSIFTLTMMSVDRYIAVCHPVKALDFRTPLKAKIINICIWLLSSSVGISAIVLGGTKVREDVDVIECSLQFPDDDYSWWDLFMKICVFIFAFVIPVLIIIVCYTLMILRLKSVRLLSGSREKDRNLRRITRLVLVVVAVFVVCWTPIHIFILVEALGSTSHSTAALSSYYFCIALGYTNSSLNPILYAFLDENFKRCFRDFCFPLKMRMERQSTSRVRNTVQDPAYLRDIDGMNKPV
T7 sequence (P35372 whole entry): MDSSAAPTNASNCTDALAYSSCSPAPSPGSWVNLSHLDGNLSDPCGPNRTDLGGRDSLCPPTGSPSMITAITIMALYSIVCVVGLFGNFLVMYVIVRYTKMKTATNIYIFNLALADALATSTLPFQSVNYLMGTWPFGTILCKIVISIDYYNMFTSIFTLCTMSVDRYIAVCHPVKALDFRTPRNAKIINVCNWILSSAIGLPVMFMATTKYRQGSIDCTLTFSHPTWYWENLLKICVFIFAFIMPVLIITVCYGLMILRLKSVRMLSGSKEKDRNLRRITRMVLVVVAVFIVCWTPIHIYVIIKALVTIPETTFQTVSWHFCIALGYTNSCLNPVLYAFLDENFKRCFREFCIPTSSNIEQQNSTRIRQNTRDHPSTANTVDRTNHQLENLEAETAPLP
T4 sequence (P51452 whole entry): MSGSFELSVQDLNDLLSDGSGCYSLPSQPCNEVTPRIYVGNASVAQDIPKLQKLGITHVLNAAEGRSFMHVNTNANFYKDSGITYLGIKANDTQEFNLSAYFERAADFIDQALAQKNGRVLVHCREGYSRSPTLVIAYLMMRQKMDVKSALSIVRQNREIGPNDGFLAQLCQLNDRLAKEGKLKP
T3 sequence (Q00975 whole entry): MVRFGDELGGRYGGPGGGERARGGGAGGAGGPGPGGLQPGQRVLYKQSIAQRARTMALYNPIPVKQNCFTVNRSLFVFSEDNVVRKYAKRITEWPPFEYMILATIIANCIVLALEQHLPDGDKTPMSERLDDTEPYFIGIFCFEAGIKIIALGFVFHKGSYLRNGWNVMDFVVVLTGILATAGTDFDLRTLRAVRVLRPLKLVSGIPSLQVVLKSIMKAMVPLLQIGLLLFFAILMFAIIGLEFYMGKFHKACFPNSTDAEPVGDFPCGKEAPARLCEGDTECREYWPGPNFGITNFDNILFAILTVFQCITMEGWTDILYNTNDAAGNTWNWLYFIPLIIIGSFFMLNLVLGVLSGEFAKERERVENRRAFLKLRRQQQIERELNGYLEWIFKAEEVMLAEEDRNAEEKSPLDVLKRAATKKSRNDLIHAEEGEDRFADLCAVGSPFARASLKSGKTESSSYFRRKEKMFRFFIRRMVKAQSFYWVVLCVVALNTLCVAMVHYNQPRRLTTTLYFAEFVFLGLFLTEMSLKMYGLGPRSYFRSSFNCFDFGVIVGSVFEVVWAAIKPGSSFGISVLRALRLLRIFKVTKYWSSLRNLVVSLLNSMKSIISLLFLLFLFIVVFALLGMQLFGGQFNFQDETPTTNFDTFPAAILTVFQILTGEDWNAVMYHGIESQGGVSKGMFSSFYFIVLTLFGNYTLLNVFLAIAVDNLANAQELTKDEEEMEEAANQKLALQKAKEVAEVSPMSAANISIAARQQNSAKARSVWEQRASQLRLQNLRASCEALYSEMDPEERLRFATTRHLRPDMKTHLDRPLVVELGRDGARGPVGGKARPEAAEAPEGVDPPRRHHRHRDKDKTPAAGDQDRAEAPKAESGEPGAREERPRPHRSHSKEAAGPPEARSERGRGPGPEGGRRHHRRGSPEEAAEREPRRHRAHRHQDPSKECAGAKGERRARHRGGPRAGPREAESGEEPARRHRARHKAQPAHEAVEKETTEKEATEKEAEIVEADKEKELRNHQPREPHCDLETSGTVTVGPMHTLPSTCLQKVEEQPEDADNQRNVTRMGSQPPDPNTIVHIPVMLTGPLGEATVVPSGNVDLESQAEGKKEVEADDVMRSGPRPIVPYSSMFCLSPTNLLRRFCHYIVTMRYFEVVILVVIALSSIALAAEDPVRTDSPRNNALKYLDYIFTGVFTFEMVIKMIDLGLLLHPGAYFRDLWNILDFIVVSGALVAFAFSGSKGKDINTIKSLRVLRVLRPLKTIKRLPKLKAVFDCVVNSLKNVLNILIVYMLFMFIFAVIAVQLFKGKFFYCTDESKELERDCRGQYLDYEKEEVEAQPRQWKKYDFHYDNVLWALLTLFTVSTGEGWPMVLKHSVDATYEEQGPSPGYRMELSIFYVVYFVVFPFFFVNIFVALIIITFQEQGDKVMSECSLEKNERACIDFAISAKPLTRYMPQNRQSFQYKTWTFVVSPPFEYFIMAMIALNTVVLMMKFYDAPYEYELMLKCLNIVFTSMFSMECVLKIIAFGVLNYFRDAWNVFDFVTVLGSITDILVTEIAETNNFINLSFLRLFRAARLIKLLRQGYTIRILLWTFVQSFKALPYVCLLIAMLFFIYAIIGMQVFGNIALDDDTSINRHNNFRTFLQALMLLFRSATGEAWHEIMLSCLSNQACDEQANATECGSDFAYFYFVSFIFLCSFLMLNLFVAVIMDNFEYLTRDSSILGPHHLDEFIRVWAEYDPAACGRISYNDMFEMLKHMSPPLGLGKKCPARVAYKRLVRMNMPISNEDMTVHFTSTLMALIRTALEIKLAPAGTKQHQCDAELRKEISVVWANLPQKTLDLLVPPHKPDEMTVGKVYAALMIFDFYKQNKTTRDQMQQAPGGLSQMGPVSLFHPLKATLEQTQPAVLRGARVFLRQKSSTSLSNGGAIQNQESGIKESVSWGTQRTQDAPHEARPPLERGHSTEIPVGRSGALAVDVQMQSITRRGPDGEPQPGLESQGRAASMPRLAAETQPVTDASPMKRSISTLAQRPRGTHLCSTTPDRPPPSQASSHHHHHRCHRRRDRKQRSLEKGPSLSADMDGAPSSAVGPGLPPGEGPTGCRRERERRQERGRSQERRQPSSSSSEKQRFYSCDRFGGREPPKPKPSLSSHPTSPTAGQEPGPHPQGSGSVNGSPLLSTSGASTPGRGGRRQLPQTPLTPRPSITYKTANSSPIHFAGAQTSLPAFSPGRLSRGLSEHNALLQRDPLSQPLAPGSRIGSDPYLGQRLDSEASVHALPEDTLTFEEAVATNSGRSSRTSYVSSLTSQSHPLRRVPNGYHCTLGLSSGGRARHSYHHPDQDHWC
T3 sequence (Q02410 whole entry): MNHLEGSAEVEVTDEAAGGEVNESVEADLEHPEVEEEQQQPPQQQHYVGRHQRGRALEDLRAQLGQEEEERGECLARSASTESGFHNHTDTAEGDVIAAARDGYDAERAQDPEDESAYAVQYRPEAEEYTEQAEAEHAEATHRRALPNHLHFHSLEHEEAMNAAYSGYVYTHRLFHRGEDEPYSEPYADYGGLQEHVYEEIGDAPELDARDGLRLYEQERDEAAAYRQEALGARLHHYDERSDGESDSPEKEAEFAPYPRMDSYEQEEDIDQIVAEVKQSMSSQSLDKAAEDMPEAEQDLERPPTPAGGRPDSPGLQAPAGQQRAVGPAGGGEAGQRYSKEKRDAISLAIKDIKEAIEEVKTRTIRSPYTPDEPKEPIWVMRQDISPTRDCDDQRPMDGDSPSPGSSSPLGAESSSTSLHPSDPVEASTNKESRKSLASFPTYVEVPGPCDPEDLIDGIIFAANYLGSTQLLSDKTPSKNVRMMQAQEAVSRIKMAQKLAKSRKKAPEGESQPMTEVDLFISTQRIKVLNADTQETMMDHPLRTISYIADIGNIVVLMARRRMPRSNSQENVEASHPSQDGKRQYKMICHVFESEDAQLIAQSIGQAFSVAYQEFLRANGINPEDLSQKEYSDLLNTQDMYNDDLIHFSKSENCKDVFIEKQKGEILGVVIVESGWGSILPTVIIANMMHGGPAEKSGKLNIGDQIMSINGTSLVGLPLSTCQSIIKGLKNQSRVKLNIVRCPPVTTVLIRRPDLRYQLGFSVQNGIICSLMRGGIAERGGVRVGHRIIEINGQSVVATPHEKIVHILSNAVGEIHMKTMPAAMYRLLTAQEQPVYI
Chain of Phosphomannomutase 2 (O15305 whole entry): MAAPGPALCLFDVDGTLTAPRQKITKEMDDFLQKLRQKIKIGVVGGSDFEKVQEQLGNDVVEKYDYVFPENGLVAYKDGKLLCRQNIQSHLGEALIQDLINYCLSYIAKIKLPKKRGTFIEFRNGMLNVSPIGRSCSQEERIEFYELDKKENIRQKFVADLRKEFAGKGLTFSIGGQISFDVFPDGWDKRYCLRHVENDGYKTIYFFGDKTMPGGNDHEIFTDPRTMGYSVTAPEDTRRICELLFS
Chain of Tumor necrosis factor (P01375 whole entry): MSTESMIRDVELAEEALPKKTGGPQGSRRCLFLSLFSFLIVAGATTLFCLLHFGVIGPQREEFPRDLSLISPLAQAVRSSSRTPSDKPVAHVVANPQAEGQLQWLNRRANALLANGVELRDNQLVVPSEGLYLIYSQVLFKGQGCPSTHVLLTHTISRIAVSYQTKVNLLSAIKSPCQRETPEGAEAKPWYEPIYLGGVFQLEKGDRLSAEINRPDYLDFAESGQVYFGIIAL

Turning to `Cc1ccc([N+](=O)[O-])cc1NC(=O)c1cc(Cl)c2ccccc2c1O`, the concentration for half-maximal inhibition (IC50) with HEK293 is 1.17 µM (active); in experiment [1], 0.17 µM (active); on Tumor necrosis factor, 0.206 µM (active).
For the compound `FC(F)(F)Oc1cccc(/N=c2\ssnc2Cl)c1`, the results for the IC50 (at Phosphomannomutase 2; in experiment [2]) were > 100 µM (inactive) and 27.5 µM (active), respectively.
As for `CCOC(=O)C1=C(C)N=c2s/c(=C\c3ccc(OCC(=O)O)cc3)c(=O)n2C1c1ccc(Cl)cc1` (stereo unspecified), the IC50 in experiment [3] was > 50 µM (inactive); in experiment [4], 8.8 µM (active); in experiment [5], 11.3 µM (active); in experiment [6], > 158 µM (not active); in experiment [7], 33.7 µM (active); in experiment [8], > 20 µM (inactive).
Consider `COc1ccc(Cl)cc1N(C(=O)c1ccco1)C(C(=O)NC1CCCC1)c1ccncc1` (stereo unspecified), for which the AC50 in experiment [9] is 104 µM (active).
Consider `CCOc1cccc(-c2c(C(=O)N/N=C/c3c(F)cccc3Cl)nnn2-c2nonc2N)c1`, for which the AC50 on CAAX prenyl protease 2 is 9 µM (active); on CAAX prenyl protease 1 it was > 100 µM (inactive).
In the case of `COc1cc(Cl)c(C)cc1NC(=O)CSc1nnc(-c2ccccn2)n1Cc1ccco1`, the EC50 in experiment [10] is > 32 µM (inactive); on Mu-type opioid receptor [12], > 32 µM (inactive); in [13] it was 11.9 µM; on Mu-type opioid receptor [15], > 32 µM (inactive); in [16], 16.3 µM (inactive); in experiment [17], 7.53 µM (active). Besides, the EC50 is 20.3 µM in experiment [18], > 32 µM (inactive) in experiment [19] and > 10 µM (inactive) in [21]. Besides, the IC50 (in [11]; in [14]; on Mu-type opioid receptor [20]; in [22]) was > 32 µM (inactive) throughout.
`Cc1cc(Cn2nc(-c3ccccc3)cc2C(=O)NCc2cccc(C(F)(F)F)c2)on1`: the IC50 in experiment [23] is 3.4 µM (active); in experiment [24] it was 31 µM (active); in experiment [25] it was > 100 µM (inactive).
In the case of `Cc1cc(C)c(NC(=O)CCc2ccccc2)c(C)c1`, the EC50 in experiment [26] was 1.6 µM (active).

As a reminder, the IC50 is the midpoint of a concentration-inhibition curve. A word on the AC50: it is the concentration giving half of the maximal activity seen. The EC50 is the concentration at which the effect is half-maximal.
